In patent publication US20250195672A1, “DENDRIMER COMPOSITIONS FOR TARGETED DELIVERY OF THERAPEUTICS TO NEURONS” (priority 2022, published 2025):
Entries after “also recorded” stand apart in the source; their conditions may differ.

Each compound was assayed on YFP-expressing cortical neurons (assay: GD2-Cy5 uptake in ex vivo cortical brain sections: neuronal activity and glucose transporter blockade). Details: 30 minutes pre-treatment in Mg2+ free ACSF: cytochalasin B 5 μM, glutor 10 μM, phlorizin 10 μM, GD2-Cy5 10 μg/ml.
Type: cell-based, mouse
Protocol: FIG. 9A is scheme of the experiment in which 300 μm cortical brain sections were pre-treated for 30 minutes with control ACSF (Mg2+ free, increases neuronal firing) or ACSF containing Mg2+/NMDG (suppressed neuronal activity) or control ACSF with either cytochalasin B (5 μM) or glutor ([…]). After pre-treatment, brain sections were incubated with GD2-Cy5 (10 μg/ml) for 30 minutes followed by 10% formalin fixation and confocal imaging.
300 μm cortical brain sections were pre-treated for 30 minutes with Mg2+ free artificial cerebrospinal fluid (ACSF) (increases neuronal firing) or ACSF containing Mg2+/NMDG (suppressed neuronal activity) or Mg2+ free ACSF with cytochalasin B (5 μM) or glutor (10 μM) or phlorizin (10 μM). After pre-treatment, brain sections were incubated with GD2-Cy5 (10 μg/ml) for 30 minutes followed by formalin fixation and confocal imaging. Mean fluorescence intensities for GD-Cy5 were evaluated in YFP-expressing cortical neurons. Confocal images of fixed sections showing DAPI (nucleus), YFP (neurons) and GD2-Cy5 with different treatments were taken and analyzed.
CP rabbit kits or Thy1-YFP mice were deeply anesthetized with isoflurane and decapitated. Brains were removed and transferred to oxygenated (95% O2/5% CO2), ice-cold N-Methyl-D-glucamin (NMDG)-based buffer (Buffer1, in mM: 92 NMDG, 2.5 KCl, 10 MgSO4, 0.5 CaCl2, 1.2 NaH2PO4, 30 NaHCO3, 25 glucose, 20 HEPES, 5 sodium ascorbate, 3 sodium pyruvate, 2 thiourea; pH 7.4). Coronal brain slices ([…]) were then obtained using a vibratome (VT1200, Leica). Slices were first incubated in the NMDG-based solution at 34° C. for 10 minutes, then transferred and maintained in the same solution for an hour at room temperature before starting subsequent experiment. Dendrimer-Cy5 was added in 5 ml of Buffer2 (in mM: 125 NaCl, 2.5 KCl, 1 MgCl2, 2 CaCl2, 1.25 NaH2PO4, 26 NaHCO3, 20 glucose; pH 7.4) containing brain slices and incubated for 30 min while oxygenation at room temperature. […]

Row | SMILES | Effect of transporter blocker pre-treatment on GD2 uptake by neurons
1 | O=C(CCc1ccc(O)cc1)c1c(O)cc(O)cc1O[C@@H]1O[C@H](CO)[C@@H](O)[C@H](O)[C@H]1O [Phlorizin] | diminished GD2 uptake
2 | C[C@@]1(C(=O)NCc2cccnc2)Cn2nc(-c3ccccc3)cc2C(=O)N1Cc1ccc(N2CCOCC2)cc1 [glutor] | diminished GD2 uptake; also recorded: significantly decreased
3 | C=C1[C@@H](C)[C@H]2[C@H](Cc3ccccc3)NC(=O)[C@]23OC(=O)/C=C/[C@H](O)CCC[C@@H](C)C/C=C/[C@H]3[C@@H]1O [cytochalasin B] | diminished GD2 uptake; also recorded: significantly decreased
